# Measurements taken from patent publication US20220001083A1, “METHOD FOR THE MODIFICATION OF A DEVICE SURFACE BY GRAFTING A CD31-DERIVED PEPTIDE ONTO THE SURFACE OF SAID DEVICE” (BALT EXTRUSION, priority 2018, published 2022).
# Tested on: erythrocytes of human peripheral whole blood
# Experiment: hemolysis assay
# Format: cell-based
# Conditions: photograph of the microplate before absorbance reading
# Description: The hemolysis assay is a required biocompatibility test for all blood-contacting devices. […] The hemolysis assay protocol we used was adapted from the one used by Bae and coworkers (Bae, I.-H., Park, I.-K., Park, D. S., Lee, H. and Jeong, M. H. 2012. Journal of Materials Science: Materials in Medicine 23 (5): 1259-1269.) as detailed below.
# Coated and bare CoCr disks were placed in the wells of a 96-well plate and sterilized by a ten minute incubation in 70° ethanol. The disks were rinsed several times in water prior to a final wash in physiological saline solution (0.9% NaCl). […]
# Disk-free wells were used as negative controls and 1% Triton X-100 (which causes the lysis of most erythrocytes through the dissolution of their plasma cell membrane) was added in blood-containing positive control wells. […] Absorbance was measured at 540 nm in a plate reader spectrophotometer (Infinite 200 PRO, TECAN). 540 nm corresponds to the absorbance peak of free hemoglobin, which is released by hemolysis from the erythrocytes. The value of the absorbance at 540 nm is therefore directly proportional to the extent of hemolysis caused by the sample disks in the experimental wells. […]
# For each experiment, these observations were quantified by absorbance reading at 540 nm, and the measurements were normalized using the values obtained with the positive and negative controls, according to the following formula: […]
substance,measurement,value
Triton X-100,macroscopic colour of platelet-poor plasma (hemolysis),effective hemolysis
